Earlier results as cited in patent US7732404B2 (priority 1999, dated 2010).

Tested on: mice
Conditions: mouse, in vivo, po

CCOC(=O)C(C)O (stereo not shown) [Ethyl lactate, 2-hydroxypropanoic acid ethyl ester]
LD50: higher than 5 g/kg
